# Data from patent US20240189319A1, “RIFAMYCIN ANALOGS IN COMBINATION WITH VANCOMYCIN AND USES THEREOF” (Regeneron Pharmaceuticals, Inc, priority 2021, published 2024).
# Assays:
# [1] = system: S. aureus MRSA strain N315; experiment: S. aureus IV advanced disseminated infection mouse model, strain N315 (kidney burden); format: in vivo, Staphylococcus aureus; conditions: for Median cfu/kidney pair / kidney burden relative to limit of detection (in words) / bacterial load relative to limit of detection (in words): Example 3D; for Median cfu/kidney pair: day 4, LOD 250
# Procedure: (§1) To test the efficacy of rifamycin analogs (I) and (II) according to the disclosure in combination therapy with vancomycin in vivo, a 4-day intravenous disseminated infection model was utilized. S. aureus MSRA strain NRS384 or N315, where indicated, was grown overnight in tryptic soy broth (TSB) and sub-cultured to mid-logarithmic phase. Bacteria were then washed twice with PBS and resuspended in PBS at a concentration of 1.5×10^8 cfu/mL NRS384 or 6.0×10^8 N315. Six-week-old Balb/c mice were then infected intravenously through the tail vein with 100 uL of the bacterial suspension, for a final infectious dose of 1.5×10^7 cfu/mouse NRS384 or 6.0×10^7 N315. From one to three days post infection, indicated mice were treated with 110 mg/kg vancomycin subcutaneously twice daily where indicated. Rifamycin analogs (I) or (II) were administered subcutaneously at the indicated dose two days after infection. Mice were monitored for weight loss and body conditioning score throughout the infection. At four days post infection, mice were euthanized, and the S. aureus kidney burden was quantified by tissue homogenization followed by enumeration of colony forming units through serial dilution in PBS and plating onto trypticase soy agar plates. Data points represent the kidney burden from individual mice tested.
# In this experiment, mice infected with S. aureus MSRA strain N315 were treated with 25 mg/kg rifampicin (control), or 0.01-0.75 mg/kg rifamycin analog (I), or 0.002-0.25 mg/kg rifamycin analog (II) in combination with vancomycin, with vancomycin alone as a control.
# [2] = system: S. aureus MRSA strain NRS384; experiment: S. aureus IV advanced disseminated infection mouse model, strain NRS384 (kidney burden); format: in vivo, Staphylococcus aureus; conditions: for kidney burden reduction in combination with vancomycin, compared with rifampicin plus vancomycin (in words): Example 3B versus Example 3A; for kidney burden, combination with vancomycin versus vancomycin alone (in words): 0.01-0.25 mg/kg + vancomycin
# Procedure: as §1
# In this experiment, mice infected with S. aureus MSRA strain NRS384 were treated with vancomycin alone (control) or vancomycin in combination with 0.002 mg/kg to 25 mg/kg rifampicin, a commercially-available rifamycin analog control.
# In this experiment, mice infected with S. aureus MSRA strain NRS384 were treated with vancomycin alone (control) or vancomycin in combination with 0.01-0.25 mg/kg rifamycin analog (I) or 0.01-0.25 mg/kg rifamycin analog (II).
# In this experiment, mice infected with S. aureus MSRA strain NRS384 were treated with 25 mg/kg rifampicin (control) or 0.002-0.25 mg/kg rifamycin analog (II) alone or in combination with vancomycin, with vancomycin alone as a control.
# [3] = dose 0.01 mg/kg + vancomycin 110 mg/kg twice daily
# [4] = dose 0.05 mg/kg + vancomycin 110 mg/kg twice daily
# [5] = dose 0.25 mg/kg + vancomycin 110 mg/kg twice daily
# [6] = Example 3B, dose 0.01 mg/kg sc day 2 + vancomycin 110 mg/kg twice daily, day 4, LOD 250
# [7] = Example 3B, dose 0.05 mg/kg sc day 2 + vancomycin 110 mg/kg twice daily, day 4, LOD 250
# [8] = Example 3B, dose 0.25 mg/kg sc day 2 + vancomycin 110 mg/kg twice daily, day 4, LOD 250
compound,measurement,setting,value
"CO[C@H]1/C=C/O[C@@]2(C)Oc3c(C)c(O)c4c(O)c(c(/C=N/N5CCN(C)CC5)c(O)c4c3C2=O)NC(=O)/C(C)=C\C=C\[C@H](C)[C@H](O)[C@@H](C)[C@@H](O)[C@@H](C)[C@H](OC(C)=O)[C@@H]1C [Rifampicin, reference compound]",Median cfu/kidney pair,[1]; dose 25 mg/kg + vancomycin 110 mg/kg twice daily,2.50E+02 cfu/kidney pair
same,Median cfu/kidney pair,"[2]; Example 3A, dose 0.002 mg/kg + vancomycin 110 mg/kg twice daily, day 4, LOD 250",3.38E+06 cfu/kidney pair
same,Median cfu/kidney pair,"[2]; Example 3A, dose 0.01 mg/kg + vancomycin 110 mg/kg twice daily, day 4, LOD 250",3.00E+06 cfu/kidney pair
same,Median cfu/kidney pair,"[2]; Example 3A, dose 0.05 mg/kg + vancomycin 110 mg/kg twice daily, day 4, LOD 250",2.75E+06 cfu/kidney pair
same,Median cfu/kidney pair,"[2]; Example 3A, dose 0.25 mg/kg + vancomycin 110 mg/kg twice daily, day 4, LOD 250",2.50E+02 cfu/kidney pair
same,Median cfu/kidney pair,"[2]; Example 3A, dose 25 mg/kg + vancomycin 110 mg/kg twice daily, day 4, LOD 250",2.50E+02 cfu/kidney pair
same,Median cfu/kidney pair,"[2]; Example 3C, dose 25 mg/kg + vancomycin 110 mg/kg twice daily, day 4, LOD 250",2.50E+02 cfu/kidney pair
same,Median cfu/kidney pair,"[2]; Example 3C, dose 25 mg/kg, without vancomycin, day 4, LOD 250",7.07E+08 cfu/kidney pair
CO[C@H]1/C=C/O[C@@]2(C)Oc3c(C)c(O)c4c(=O)c(c5oc6cc(OCCN(C)C)cc(O)c6nc-5c4c3C2=O)NC(=O)/C(C)=C\C=C\[C@H](C)[C@H](O)[C@@H](C)[C@@H](O)[C@@H](C)[C@H](OC(C)=O)[C@@H]1C [Rifamycin analog (I)],kidney burden relative to limit of detection (in words),[1]; 0.01-0.75 mg/kg + vancomycin,at or near the limit of detection
same,Median cfu/kidney pair,[1]; [3],2.50E+02 cfu/kidney pair
same,Median cfu/kidney pair,[1]; [4],2.50E+02 cfu/kidney pair
same,Median cfu/kidney pair,[1]; [5],2.50E+02 cfu/kidney pair
same,Median cfu/kidney pair,[1]; dose 0.75 mg/kg + vancomycin 110 mg/kg twice daily,2.50E+02 cfu/kidney pair
same,bacterial load relative to limit of detection (in words),[1]; dose of 0.01 mg/kg in combination with vancomycin,below the limit of detection
same,"kidney burden reduction in combination with vancomycin, compared with rifampicin plus vancomycin (in words)",[2],effective at reducing S. aureus kidney burden at lower doses than rifampicin
same,"kidney burden, combination with vancomycin versus vancomycin alone (in words)",[2]; Example 3B,further reduced kidney burden
same,Median cfu/kidney pair,[2]; [6],5.88E+04 cfu/kidney pair
same,Median cfu/kidney pair,[2]; [7],5.75E+03 cfu/kidney pair
same,Median cfu/kidney pair,[2]; [8],2.50E+02 cfu/kidney pair
CO[C@H]1/C=C/O[C@@]2(C)Oc3c(C)c(O)c4c(=O)c(c5oc6cc(OCCN(C)C)ccc6nc-5c4c3C2=O)NC(=O)/C(C)=C\C=C\[C@H](C)[C@H](O)[C@@H](C)[C@@H](O)[C@@H](C)[C@H](OC(C)=O)[C@@H]1C [Rifamycin analog (II)],kidney burden relative to limit of detection (in words),[1]; 0.002-0.25 mg/kg + vancomycin,at or near the limit of detection
same,Median cfu/kidney pair,[1]; dose 0.002 mg/kg + vancomycin 110 mg/kg twice daily,2.50E+02 cfu/kidney pair
same,Median cfu/kidney pair,[1]; [3],2.50E+02 cfu/kidney pair
same,Median cfu/kidney pair,[1]; [4],6.25E+02 cfu/kidney pair
same,Median cfu/kidney pair,[1]; [5],2.50E+02 cfu/kidney pair
same,bacterial load relative to limit of detection (in words),[1]; dose of 0.002 mg/kg in combination with vancomycin,below the limit of detection
same,reduction in S. aureus kidney burden,[2]; 0.25 mg/kg as a monotherapy (Example 3C),~3 logs
same,"kidney burden reduction in combination with vancomycin, compared with rifampicin plus vancomycin (in words)",[2],effective at reducing S. aureus kidney burden at lower doses than rifampicin
same,"kidney burden, combination with vancomycin versus vancomycin alone (in words)",[2]; Example 3B,further reduced kidney burden
same,Median cfu/kidney pair,[2]; [6],2.50E+02 cfu/kidney pair
same,Median cfu/kidney pair,[2]; [7],2.50E+02 cfu/kidney pair
same,Median cfu/kidney pair,[2]; [8],3.38E+05 cfu/kidney pair
same,S. aureus kidney burden relative to limit of detection (in words),"[2]; Example 3B, lowest tested dose 0.01 mg/kg + vancomycin",below the limit of detection
same,combination with vancomycin versus monotherapies in reducing bacterial burden (in words),[2]; Example 3C,more effective than either monotherapy
same,efficacy when rifamycin analog (II) and vancomycin are used in combination (in words),[2]; Example 3C,enhanced
same,Median cfu/kidney pair,"[2]; Example 3C, dose 0.002 mg/kg + vancomycin 110 mg/kg twice daily, day 4, LOD 250",2.50E+02 cfu/kidney pair
same,Median cfu/kidney pair,"[2]; Example 3C, dose 0.002 mg/kg, without vancomycin, day 4, LOD 250",2.75E+07 cfu/kidney pair
same,Median cfu/kidney pair,"[2]; Example 3C, dose 0.01 mg/kg + vancomycin 110 mg/kg twice daily, day 4, LOD 250",2.50E+02 cfu/kidney pair
same,Median cfu/kidney pair,"[2]; Example 3C, dose 0.01 mg/kg, without vancomycin, day 4, LOD 250",5.13E+06 cfu/kidney pair
same,Median cfu/kidney pair,"[2]; Example 3C, dose 0.05 mg/kg + vancomycin 110 mg/kg twice daily, day 4, LOD 250",2.50E+02 cfu/kidney pair
same,Median cfu/kidney pair,"[2]; Example 3C, dose 0.05 mg/kg, without vancomycin, day 4, LOD 250",1.52E+08 cfu/kidney pair
same,Median cfu/kidney pair,"[2]; Example 3C, dose 0.25 mg/kg + vancomycin 110 mg/kg twice daily, day 4, LOD 250",3.75E+02 cfu/kidney pair
same,Median cfu/kidney pair,"[2]; Example 3C, dose 0.25 mg/kg, without vancomycin (monotherapy), day 4, LOD 250",2.13E+04 cfu/kidney pair
same,bacterial load relative to limit of detection (in words),"[2]; Example 3C, low doses including 0.05 and 0.002 mg/kg, in combination with vancomycin",below the limit of detection
Vancomycin [reference compound],Median cfu/kidney pair,[1]; vancomycin alone 110 mg/kg sc twice daily,3.88E+04 cfu/kidney pair
same,reduction in S. aureus kidney burden,[1]; vancomycin treatment alone (Example 3D),~4 log
same,Median cfu/kidney pair,"[2]; Example 3A, Balb/c mice, vancomycin alone 110 mg/kg sc twice daily days 1-3, day 4 post infection, limit of detection 250",1.30E+06 cfu/kidney pair
same,Median cfu/kidney pair,"[2]; Example 3B, vancomycin alone 110 mg/kg sc twice daily, day 4, LOD 250",3.50E+06 cfu/kidney pair
same,efficacy when rifamycin analog (II) and vancomycin are used in combination (in words),[2]; Example 3C,enhanced
same,Median cfu/kidney pair,"[2]; Example 3C, vancomycin alone 110 mg/kg sc twice daily, day 4, LOD 250",1.13E+06 cfu/kidney pair
same,reduction in S. aureus kidney burden,"[2]; vancomycin treatment alone (Examples 3A, 3B, 3C)",2-3 log
